From ChEMBL document CHEMBL4364288, “Discovery of carbazole derivatives as novel allosteric MEK inhibitors by pharmacophore modeling and virtual screening” (Eur J Med Chem, 2019) come the findings set out here.

Some results are limits rather than exact numbers.

For test [1], the system named is Sf21. Particulars: Homo sapiens, at 20 µM.
Description: Inhibition of recombinant N-terminal GST-tagged human BRAF (433-726 residues) expressed in baculovirus infected sf21 insect cells/recombinant human full length N-terminal GST-tagged MEK1 expressed in Escherichia coli cascading pathway assessed as reduction in MEK1 phosphorylation at 20 uM incubated for 2 hrs by HTRF assay relative to control
For test [2], the species on record is Homo sapiens. The note with it: at 20 µM.
Description: Inhibition of GST-tagged MEK1/ERK2 (unknown origin) cascading pathway assessed as reduction in ERK2 phosphorylation at 20 uM incubated for 2 hrs by HTRF assay relative to control
In test [3] the test system is A-375. The test can be described thus: cells. It is filed as functional, cell-based. Particulars: Homo sapiens, A-375, 72 h.
Description: Antiproliferative activity against human A375 cells assessed as cell viability incubated for 72 hrs by cell titer-glo luminescent cell viability assay (Rvb = > 100 uM)
Test [4] concerns Sf21. Particulars: Homo sapiens, at 2 µM.
Description: Inhibition of recombinant N-terminal GST-tagged human BRAF (433-726 residues) expressed in baculovirus infected sf21 insect cells/recombinant human full length N-terminal GST-tagged MEK1 expressed in Escherichia coli cascading pathway assessed as reduction in MEK1 phosphorylation at 2 uM incubated for 2 hrs by HTRF assay relative to control
Test [5] deals with HL-60. The test can be described thus: cells. It counts as functional, cell-based. Particulars: Homo sapiens, HL-60, 72 h.
In test [6] the test system is HEK293. Kind of test: cells. It is filed as ADME, cell-based. The note with it: Homo sapiens, HEK293, 72 h.
For test [7], the target named is Dual specificity mitogen-activated protein kinase kinase 1 (Homo sapiens) (UniProt Q02750). Kind of test: Inhibition of recombinant full length GST-tagged human MEK1 expressed in baculovirus infected sf9 insect cells at 2 uM measured after 30 to 90 mins by HTRF based Lanthascreen Eu kinase binding assay relative to AZD6244. Background: TR-FRET usually uses a lanthanide donor and a delayed reading to cut background.
Dual specificity mitogen-activated protein kinase kinase 1 (Homo sapiens), sequence (Q02750 whole entry): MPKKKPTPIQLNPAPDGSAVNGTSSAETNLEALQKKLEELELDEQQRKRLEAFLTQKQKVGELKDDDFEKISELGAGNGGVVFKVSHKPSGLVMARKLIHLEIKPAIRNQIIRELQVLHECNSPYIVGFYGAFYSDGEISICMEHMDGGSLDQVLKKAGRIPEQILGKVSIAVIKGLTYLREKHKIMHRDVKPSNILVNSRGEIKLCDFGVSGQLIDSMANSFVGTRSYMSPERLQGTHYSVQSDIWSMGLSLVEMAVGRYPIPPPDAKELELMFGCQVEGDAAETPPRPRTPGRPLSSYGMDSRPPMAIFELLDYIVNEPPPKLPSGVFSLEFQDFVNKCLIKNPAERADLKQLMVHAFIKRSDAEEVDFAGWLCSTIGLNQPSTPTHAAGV

Test [8] is described as follows: Inhibition of GST-tagged MEK1/ERK2 (unknown origin) cascading pathway assessed as reduction in ERK2 phosphorylation incubated for 2 hrs by HTRF assay relative to control. Set-up: species or system Homo sapiens.
For test [9], the species on record is Homo sapiens. The note with it: at 2 µM.
Description: Inhibition of GST-tagged MEK1/ERK2 (unknown origin) cascading pathway assessed as reduction in ERK2 phosphorylation at 2 uM incubated for 2 hrs by HTRF assay relative to control
Test [10] has as its target Dual specificity mitogen-activated protein kinase kinase 1 (Homo sapiens) (UniProt Q02750). The test can be described thus: Inhibition of recombinant full length GST-tagged human MEK1 expressed in baculovirus infected sf9 insect cells at 20 uM measured after 30 to 90 mins by HTRF based Lanthascreen Eu kinase binding assay relative to AZD6244.
The subject of test [11] is A549. The test can be described thus: cells. The note with it: Homo sapiens, A549, 72 h. It counts as functional, cell-based.
The nature of test [12]: Inhibition of BRAF/MEK1 (unknown origin) cascading pathway assessed as reduction in MEK1 phosphorylation incubated for 2 hrs in presence of 100 uM ATP by HTRF assay. Set-up: species or system Homo sapiens.
Test [13] can be described thus: Inhibition of BRAF/MEK1 (unknown origin) cascading pathway assessed as reduction in MEK1 phosphorylation incubated for 2 hrs in presence of 300 uM ATP by HTRF assay. Set-up: species or system Homo sapiens.

What is called inhibition is the drop in the measured response relative to a control, in per cent. On to `CCOC(=O)COc1cc(NS(=O)(=O)c2ccc(NC(C)=O)cc2)c2[nH]c3ccccc3c2c1`, for which the inhibition in [1] is 27.4%; in test [2] it was 18.2%.
For `Cc1ccc(S(=O)(=O)Nc2cc(OCC(N)=O)cc3c2[nH]c2ccccc23)cc1` the same measures were 41.9% and 27.9%.
One may read the IC50 as the concentration needed to halve the response being measured. Regarding `Cc1ccc(S(=O)(=O)Nc2cc(SCC(=O)O)c(O)c3ccccc23)cc1`, the IC50 in [3] is 7.7 µM; in test [5], 17.2 µM; in [6], 8.9 µM; in [8], > 160 µM; in test [11] it was 21.6 µM. For the same compound, the inhibition in [4] is 4.4%; in [7] it was 32.1%; in test [1] it was 56.1%; in test [9] it was 3.9%; in [10], 90.3%; in [2], 32%.
In the case of `Cc1ccc(S(=O)(=O)Nc2cc(S(=O)(=O)CC(=O)O)cc3c2[nH]c2ccccc23)cc1`, the inhibition is 45% in test [1] and 35.5% in test [2].
Regarding `Cc1ccc(S(=O)(=O)Nc2cc(OCc3nnn[nH]3)cc3c2[nH]c2ccccc23)cc1`, the inhibition amounted to 46.8% in [1] and 45.1% in test [2].
Regarding `N#CC(=C(/N)Sc1ccccc1N)/C(C#N)=C(\N)Sc1ccccc1N`, the IC50 is 1.1 µM in test [3] and 32.2 µM in [11]. Moreover, the inhibition was 41.7% in test [4], 87.4% in test [1], 26.9% in test [9] and 80.9% in [2].
In the case of `CCOC(=O)CSc1cc(NS(=O)(=O)c2ccc(NC(C)=O)cc2)c2[nH]c3ccccc3c2c1`, the inhibition was 35.8% in test [1] and 21.8% in test [2].
On to `Cc1ccc(S(=O)(=O)Nc2cc(OCC(=O)O)cc3c2[nH]c2ccccc23)cc1`, for which the IC50 is > 100 µM in test [3]; > 100 µM in test [5]; > 100 µM in test [6]; 13.2 µM in test [12]; 12.1 µM in test [13]; > 100 µM in [11]. The inhibition came out at 65.8% in [1] and 21.5% in [2].
As to `Cc1ccc(S(=O)(=O)Nc2cc(OCc3nnc(C)o3)cc3c2[nH]c2ccccc23)cc1`, the values for the inhibition in test [1] and in [2] were 48.6% and 25.8%, respectively.
In the same order, the values of `Cc1ccc(S(=O)(=O)Nc2cc(OCc3nc(C)no3)cc3c2[nH]c2ccccc23)cc1` are 38.2% and 37.8%.
Take `Cc1ccc(S(=O)(=O)Nc2cc(SCC(=O)O)c(O)c3c2[nH]c2ccccc23)cc1`: the IC50 is 14.7 µM in test [3], 26.3 µM in test [5], > 100 µM in test [6] and 12.8 µM in test [11]. The inhibition in test [1] turned out to be 43.7%; in [2], 35.6%.
For the compound `CCOC(=O)CSc1cc(NS(=O)(=O)c2ccc(C)cc2)c2[nH]c3ccccc3c2c1`, the inhibition in [1] worked out at 45.2%; in [2], 39.2%.
Regarding `CC(=O)Nc1ccc(S(=O)(=O)Nc2cc(SCC(=O)O)cc3c2[nH]c2ccccc23)cc1`, the results for the inhibition in test [1] and in test [2] were 44.2% and 27.7%, respectively.
Take `CC(=O)Nc1cccc(S(=O)(=O)Nc2cc(OCc3nnc(C)o3)cc3c2[nH]c2ccccc23)c1`: the inhibition is 29.5% in [1] and -10% in [2].
Consider `CCOC(=O)COc1cc(NS(=O)(=O)c2ccc(C)cc2)c2[nH]c3ccccc3c2c1`, for which the IC50 in test [3] is 70.7 µM; in test [5] it was > 100 µM; in test [6], > 100 µM; in [11], 70.7 µM. The inhibition in [1] was 56.6%; in test [2], 28.9%.
Consider `COc1cc(/C=C2\C(=O)NN(c3ccc(I)cc3)C2=O)ccc1OC(C)=O`, for which the inhibition in test [4] amounted to 6.3%; in test [7], 11.9%; in test [1] it was 57%; in [9], 5.1%; in test [10] it was 60.1%; in test [2] it was 35%. The IC50 in test [8] amounted to 63.1 µM.
As to `CC(=O)Nc1ccc(S(=O)(=O)Nc2cc(OCc3nnc(C)o3)cc3c2[nH]c2ccccc23)cc1`, the IC50 in test [3] is 43.7 µM; in [5], > 100 µM; in [6], > 100 µM; in [11], > 100 µM. Further, the inhibition in test [1] came out at 50.7%; in test [2], 20.6%.
With `Cc1ccc(S(=O)(=O)Nc2cc(OCc3nnc(N)o3)cc3c2[nH]c2ccccc23)cc1`, the inhibition in test [1] worked out at 33%; in [2] it was 21.4%.
Consider `Cc1ccc(S(=O)(=O)Nc2cc(SCC(=O)O)cc3c2[nH]c2ccccc23)cc1`, for which the IC50 in test [3], in test [5], in [6] and in [11] was > 100 µM in each case. The inhibition in test [1] is 67.2%; in test [2], 21.4%.
